{"source": "the supplement of paper PMC10307832", "test_in_all_cases": "relative viability (nuclei count vs DMSO), 5 days (fraction); higher = more cells survive", "key": {"[1]": {"compound": "CN(NC(=O)CC(=O)NN(C)C(=S)c1ccccc1)C(=S)c1ccccc1 [Elesclomol]", "in_short": "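Hoechst staining, done together with fixation and permeabilisation, marked nuclei for 4× imaging and MetaXpress counting. This followed 5 days without medium change after lung cancer cell lines, kept overnight at 37 °C in 1536-well plates, were pinned with five library-drug doses (not always all listed) spaced by √10 on vehicle-anchored plates. Viability is the ratio of treated-well to vehicle-well nuclei, expressed as a median across plates. Plates passed only at control CV below 25% with at least one doubling.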"}, "[2]": {"compound": "CN(NC(=O)CC(=O)NN(C)C(=S)c1ccccc1)C(=S)c1ccccc1 [Elesclomol] + O=C(c1cc(Cc2n[nH]c(=O)c3ccccc23)ccc1F)N1CCN(C(=O)C2CC2)CC1 [Olaparib] (partner 8 µM)", "in_short": "(§1)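 One day after seeding in 1536-well plates, lung cancer cell lines were dosed by pin tool. Dosing was either single-drug or a fixed anchor-drug dose plus five library-drug doses (not always all listed) in √10 steps. After 5 days, nuclei were stained in one fix-and-stain step and counted on 4× images, and relative viability is the nuclei count of treated wells over that of vehicle wells, given as the median of duplicate plates.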"}, "[3]": {"compound": "CN(NC(=O)CC(=O)NN(C)C(=S)c1ccccc1)C(=S)c1ccccc1 [Elesclomol] + CS(=O)(=O)N1CCN(Cc2cc3nc(-c4cccc5[nH]ncc45)nc(N4CCOCC4)c3s2)CC1 [Pictilisib] (partner 1 µM)", "in_short": "as §1"}, "[4]": {"compound": "CN(NC(=O)CC(=O)NN(C)C(=S)c1ccccc1)C(=S)c1ccccc1 [Elesclomol] + COc1cc2c(Oc3ccc(NC(=O)C4(C(=O)Nc5ccc(F)cc5)CC4)cc3F)ccnc2cc1OCCCN1CCOCC1 [Foretinib] (partner 0.25 µM)", "in_short": "as §1"}, "[5]": {"compound": "CN(NC(=O)CC(=O)NN(C)C(=S)c1ccccc1)C(=S)c1ccccc1 [Elesclomol] + CC1(C)CCC(c2ccc(Cl)cc2)=C(CN2CCN(c3ccc(C(=O)NS(=O)(=O)c4ccc(N[C@H](CCN5CCOCC5)CSc5ccccc5)c(S(=O)(=O)C(F)(F)F)c4)cc3)CC2)C1 [Navitoclax] (partner 0.5 µM)", "in_short": "as §1"}, "[6]": {"compound": "CN(NC(=O)CC(=O)NN(C)C(=S)c1ccccc1)C(=S)c1ccccc1 [Elesclomol] + CS(=O)(=O)CCNCc1ccc(-c2ccc3ncnc(Nc4ccc(OCc5cccc(F)c5)c(Cl)c4)c3c2)o1 [Lapatinib] (partner 2 µM)", "in_short": "as §1"}, "[7]": {"compound": "CN(NC(=O)CC(=O)NN(C)C(=S)c1ccccc1)C(=S)c1ccccc1 [Elesclomol] + Cc1nc(NC(=O)N2CCC[C@H]2C(N)=O)sc1-c1ccnc(C(C)(C)C(F)(F)F)c1 [Alpelisib] (partner 2 µM)", "in_short": "as §1"}, "[8]": {"compound": "CN(NC(=O)CC(=O)NN(C)C(=S)c1ccccc1)C(=S)c1ccccc1 [Elesclomol] + C[C@]1(O)C[C@@H](c2nc(-c3ccc4ccc(-c5ccccc5)nc4c3)c3c(N)nccn32)C1 [Linsitinib] (partner 1 µM)", "in_short": "as §1"}, "[9]": {"compound": "CN(NC(=O)CC(=O)NN(C)C(=S)c1ccccc1)C(=S)c1ccccc1 [Elesclomol] + CC(C)C[C@H](NC(=O)[C@H](Cc1ccccc1)NC(=O)c1cnccn1)B(O)O [Bortezomib] (partner 0.002 µM)", "in_short": "as §1"}, "[10]": {"compound": "CN(NC(=O)CC(=O)NN(C)C(=S)c1ccccc1)C(=S)c1ccccc1 [Elesclomol] + C[C@@H](Oc1cc(-c2cnn(C3CCNCC3)c2)cnc1N)c1c(Cl)ccc(F)c1Cl [Crizotinib] (partner 1 µM)", "in_short": "as §1"}}, "data": [{"cell line": "Calu-6", "values": [{"measurement": "relative viability", "setting": "[1]; 0.003162 µM", "result": 0.768}, {"measurement": "relative viability", "setting": "[1]; 0.01 µM", "result": 0.317}, {"measurement": "relative viability", "setting": "[1]; 0.03162 µM", "result": 0.304}, {"measurement": "relative viability", "setting": "[1]; 0.1 µM", "result": 0.138}, {"measurement": "relative viability", "setting": "[2]; first compound 0.003162 µM", "result": 0.477}, {"measurement": "relative viability", "setting": "[2]; first compound 0.01 µM", "result": 0.219}, {"measurement": "relative viability", "setting": "[2]; first compound 0.03162 µM", "result": 0.177}, {"measurement": "relative viability", "setting": "[2]; first compound 0.1 µM", "result": 0.121}, {"measurement": "relative viability", "setting": "[3]; first compound 0.003162 µM", "result": 0.573}, {"measurement": "relative viability", "setting": "[3]; first compound 0.01 µM", "result": 0.239}, {"measurement": "relative viability", "setting": "[3]; first compound 0.03162 µM", "result": 0.164}, {"measurement": "relative viability", "setting": "[3]; first compound 0.1 µM", "result": 0.111}, {"measurement": "relative viability", "setting": "[4]; first compound 0.003162 µM", "result": 0.511}, {"measurement": "relative viability", "setting": "[4]; first compound 0.01 µM", "result": 0.15}, {"measurement": "relative viability", "setting": "[4]; first compound 0.03162 µM", "result": 0.0883}, {"measurement": "relative viability", "setting": "[4]; first compound 0.1 µM", "result": 0.0356}, {"measurement": "relative viability", "setting": "[5]; first compound 0.003162 µM", "result": 0.476}, {"measurement": "relative viability", "setting": "[5]; first compound 0.01 µM", "result": 0.166}, {"measurement": "relative viability", "setting": "[5]; first compound 0.03162 µM", "result": 0.122}, {"measurement": "relative viability", "setting": "[5]; first compound 0.1 µM", "result": 0.0729}, {"measurement": "relative viability", "setting": "[6]; first compound 0.003162 µM", "result": 0.602}, {"measurement": "relative viability", "setting": "[6]; first compound 0.01 µM", "result": 0.276}, {"measurement": "relative viability", "setting": "[6]; first compound 0.03162 µM", "result": 0.3}, {"measurement": "relative viability", "setting": "[6]; first compound 0.1 µM", "result": 0.12}, {"measurement": "relative viability", "setting": "[7]; first compound 0.003162 µM", "result": 0.727}, {"measurement": "relative viability", "setting": "[7]; first compound 0.01 µM", "result": 0.243}, {"measurement": "relative viability", "setting": "[7]; first compound 0.03162 µM", "result": 0.229}, {"measurement": "relative viability", "setting": "[7]; first compound 0.1 µM", "result": 0.127}, {"measurement": "relative viability", "setting": "[8]; first compound 0.003162 µM", "result": 0.737}, {"measurement": "relative viability", "setting": "[8]; first compound 0.01 µM", "result": 0.223}, {"measurement": "relative viability", "setting": "[8]; first compound 0.03162 µM", "result": 0.285}, {"measurement": "relative viability", "setting": "[8]; first compound 0.1 µM", "result": 0.153}, {"measurement": "relative viability", "setting": "[9]; first compound 0.003162 µM", "result": 0.787}, {"measurement": "relative viability", "setting": "[9]; first compound 0.01 µM", "result": 0.322}, {"measurement": "relative viability", "setting": "[9]; first compound 0.03162 µM", "result": 0.16}, {"measurement": "relative viability", "setting": "[9]; first compound 0.1 µM", "result": 0.155}, {"measurement": "relative viability", "setting": "[10]; first compound 0.003162 µM", "result": 0.501}, {"measurement": "relative viability", "setting": "[10]; first compound 0.01 µM", "result": 0.222}, {"measurement": "relative viability", "setting": "[10]; first compound 0.03162 µM", "result": 0.247}, {"measurement": "relative viability", "setting": "[10]; first compound 0.1 µM", "result": 0.121}]}, {"cell line": "EBC-1", "values": [{"measurement": "relative viability", "setting": "[1]; 0.003162 µM", "result": 0.983}, {"measurement": "relative viability", "setting": "[1]; 0.01 µM", "result": 0.74}, {"measurement": "relative viability", "setting": "[1]; 0.03162 µM", "result": 0.506}, {"measurement": "relative viability", "setting": "[1]; 0.1 µM", "result": 0.349}, {"measurement": "relative viability", "setting": "[2]; first compound 0.003162 µM", "result": 0.655}, {"measurement": "relative viability", "setting": "[2]; first compound 0.01 µM", "result": 0.544}, {"measurement": "relative viability", "setting": "[2]; first compound 0.03162 µM", "result": 0.487}, {"measurement": "relative viability", "setting": "[2]; first compound 0.1 µM", "result": 0.291}, {"measurement": "relative viability", "setting": "[3]; first compound 0.003162 µM", "result": 0.335}, {"measurement": "relative viability", "setting": "[3]; first compound 0.01 µM", "result": 0.17}, {"measurement": "relative viability", "setting": "[3]; first compound 0.03162 µM", "result": 0.156}, {"measurement": "relative viability", "setting": "[3]; first compound 0.1 µM", "result": 0.148}, {"measurement": "relative viability", "setting": "[4]; first compound 0.003162 µM", "result": 0.11}, {"measurement": "relative viability", "setting": "[4]; first compound 0.01 µM", "result": 0.1}, {"measurement": "relative viability", "setting": "[4]; first compound 0.03162 µM", "result": 0.0784}, {"measurement": "relative viability", "setting": "[4]; first compound 0.1 µM", "result": 0.0763}, {"measurement": "relative viability", "setting": "[5]; first compound 0.003162 µM", "result": 0.374}, {"measurement": "relative viability", "setting": "[5]; first compound 0.01 µM", "result": 0.228}, {"measurement": "relative viability", "setting": "[5]; first compound 0.03162 µM", "result": 0.146}, {"measurement": "relative viability", "setting": "[5]; first compound 0.1 µM", "result": 0.132}, {"measurement": "relative viability", "setting": "[6]; first compound 0.003162 µM", "result": 0.239}, {"measurement": "relative viability", "setting": "[6]; first compound 0.01 µM", "result": 0.183}, {"measurement": "relative viability", "setting": "[6]; first compound 0.03162 µM", "result": 0.177}, {"measurement": "relative viability", "setting": "[6]; first compound 0.1 µM", "result": 0.157}, {"measurement": "relative viability", "setting": "[7]; first compound 0.003162 µM", "result": 0.733}, {"measurement": "relative viability", "setting": "[7]; first compound 0.01 µM", "result": 0.354}, {"measurement": "relative viability", "setting": "[7]; first compound 0.03162 µM", "result": 0.268}, {"measurement": "relative viability", "setting": "[7]; first compound 0.1 µM", "result": 0.206}, {"measurement": "relative viability", "setting": "[8]; first compound 0.003162 µM", "result": 0.892}, {"measurement": "relative viability", "setting": "[8]; first compound 0.01 µM", "result": 0.614}, {"measurement": "relative viability", "setting": "[8]; first compound 0.03162 µM", "result": 0.484}, {"measurement": "relative viability", "setting": "[8]; first compound 0.1 µM", "result": 0.227}, {"measurement": "relative viability", "setting": "[9]; first compound 0.003162 µM", "result": 0.497}, {"measurement": "relative viability", "setting": "[9]; first compound 0.01 µM", "result": 0.436}, {"measurement": "relative viability", "setting": "[9]; first compound 0.03162 µM", "result": 0.208}, {"measurement": "relative viability", "setting": "[9]; first compound 0.1 µM", "result": 0.156}, {"measurement": "relative viability", "setting": "[10]; first compound 0.003162 µM", "result": 0.18}, {"measurement": "relative viability", "setting": "[10]; first compound 0.01 µM", "result": 0.199}, {"measurement": "relative viability", "setting": "[10]; first compound 0.03162 µM", "result": 0.151}, {"measurement": "relative viability", "setting": "[10]; first compound 0.1 µM", "result": 0.135}]}]}
